Assay results reported in US20210379040A1, “COMBINATION TREATMENT OF LIVER DISORDERS” (Terns Pharmaceuticals, Inc., priority 2020, published 2021).
Read-outs that look alike come from different tables or passages of the source.

Tests used:
human hepatocytes = assay: In vitro metabolic stability in cryopreserved hepatocytes (human); type: in vitro ADME
Protocol: (§1) In vitro half-life values were determined and scaled to predict hepatic clearance (CLpred) and hepatic extraction using the well-stirred liver model with no correction for plasma protein as described in Obach et al., The Prediction of Human Pharmacokinetic Parameters from Preclinical and In Vitro Metabolism Data, J. of Pharmacology and Experimental Therapeutics, vol. 283, no. 1, pp. 46-58 (1997).

rat hepatocytes = assay: In vitro metabolic stability in cryopreserved hepatocytes (rat); type: in vitro ADME; settings: Sprague-Dawley Rat
Protocol: as §1

[1] = system: FXR-regulated gene expression in human HuH7 hepatoma cells; assay: cells; settings: Huh-7, 11 h
Protocol: EC50 values for FXR-regulated gene expression were determined using a cell-based RNA assay.

mouse model of NASH = assay: Mouse model of NASH (high fat diet + CCl4); type: in vivo, C57/BL6J mice
Protocol: Hematoxylin & Eosin (H&E) and Sirius Red histological staining of liver tissue was used to quantitate NAFLD activity score (NAS), steatosis, ballooning, inflammation and fibrosis. […] Gene expression of RNA was analyzed by RT-qPCR and RNAseq.
NAS is calculated based upon liver steatosis, inflammation, and ballooning and was determined by analysis of liver tissue histology using H&E stain. […] Hepatocellular ballooning is a form of liver cell injury associated with cell swelling and is also measured by H&E stained liver sections. The ballooning score is calculated as follows: 0-no hepatocyte ballooning; 1-few ballooning hepatocytes; 2-many hepatocytes with prominent ballooning.
Liver fibrosis was quantified by histological analysis of the percentage of Sirius Red-positive liver sections. […] Liver triglycerides were measured from liver tissue using a biochemical analyzer (Hitachi-700).

[2] = Clinical study, Second Study (7 days daily oral dosing); settings: for AUC: human, in vivo, po
[3] = system: FXR-regulated gene expression in liver and ileum; assay: Mechanism of action: tissue RNA by RT-qPCR and RNAseq after single oral dose; settings: C57BL/6 mice, single oral 10 mg/kg, 6 hours
Protocol: The RNA was analyzed by RT-qPCR and RNAseq.
For RNAseq analysis, mRNA was extracted from total liver and sequenced using standard Illumina library preparation and sequencing protocols. Differentially expressed genes (DEG) were determined using RSEM and edgeR software packages and analyzed using Advaita Bio's iPathwayGuide software.

[4] = Pharmacokinetics assay, dog; type: in vivo, beagle dogs; settings: plasma, iv, Beagle Dog, intravenously 1 mg/kg
Text: Results are shown in FIG. 1A (IV administration) and FIG. 1B (oral administration), and in Table 2. […] Smaller Vdss in monkeys is correlated with higher plasma protein binding.

plasma SSAO = molecular target: T1, plasma SSAO (Homo sapiens, UniProt Q16853); assay: Single-ascending dose clinical trial: plasma amine oxidase activity and methylamine; type: in vivo
T1 construct: from tissue; host or cells: plasma of healthy participants
T1 sequence (Q16853 27-763 limits assumed): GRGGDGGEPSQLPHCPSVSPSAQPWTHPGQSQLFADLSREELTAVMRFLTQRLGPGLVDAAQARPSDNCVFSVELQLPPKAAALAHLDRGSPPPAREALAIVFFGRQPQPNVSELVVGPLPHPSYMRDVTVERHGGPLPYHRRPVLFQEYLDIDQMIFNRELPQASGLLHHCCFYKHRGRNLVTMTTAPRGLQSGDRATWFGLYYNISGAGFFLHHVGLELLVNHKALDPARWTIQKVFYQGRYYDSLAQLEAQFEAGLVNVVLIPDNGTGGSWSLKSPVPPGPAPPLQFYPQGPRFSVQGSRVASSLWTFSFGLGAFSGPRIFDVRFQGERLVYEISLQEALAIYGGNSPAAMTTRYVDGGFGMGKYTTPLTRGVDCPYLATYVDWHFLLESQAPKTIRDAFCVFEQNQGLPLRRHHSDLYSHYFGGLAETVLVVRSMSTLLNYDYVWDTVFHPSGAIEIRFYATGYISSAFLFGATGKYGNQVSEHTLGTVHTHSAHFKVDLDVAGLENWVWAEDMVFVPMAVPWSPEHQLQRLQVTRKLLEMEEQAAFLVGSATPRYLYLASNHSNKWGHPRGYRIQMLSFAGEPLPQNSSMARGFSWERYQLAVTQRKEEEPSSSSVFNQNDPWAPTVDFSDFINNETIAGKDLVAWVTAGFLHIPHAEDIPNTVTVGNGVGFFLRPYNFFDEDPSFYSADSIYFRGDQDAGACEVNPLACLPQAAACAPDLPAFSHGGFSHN
Protocol: Safety was assessed for 7 (±3) days after dosing.
Plasma PK parameters were determined by non-compartmental analysis.
SSAO-specific amine oxidase levels in plasma were determined using a kinetic-based assay essentially as described previously (Schilter et al). Endogenous monoamine oxidases A and B were inhibited by adding pargyline to plasma samples prior to measuring H2O2 generation levels in placebo and active recipients. Maximum inhibition was defined by pre-dose (baseline) samples additionally treated with a high dose of Compound 2 and percent changes in SSAO-specific activity were calculated relative to baseline samples.

[5] = NASH mice, 10, 30, 100 mg/kg, vs untreated NASH mice

Q: Which results are given for `Cn1cc(C(=O)O)c2ccc(N3CCC(OCc4c(-c5c(Cl)cccc5Cl)noc4C4CC4)CC3)cc21` [Compound 1]?
A: Hepatic Extraction (human hepatocytes): 67.0 ± 1.73%; In vitro Metabolic CLpred (human hepatocytes; well-stirred liver model): 13.8 ± 3.67 mL/min/kg; Hepatic Extraction (rat hepatocytes): 47.3 ± 0.78%; In vitro Metabolic CLpred (rat hepatocytes; well-stirred liver model): 26.2 ± 0.5 mL/min/kg; EC50 ([1]; read-out: EC50, BSEP Gene induction/HuH7): 0.04 µM; EC50 ([1]; read-out: EC50, FGF-19 Gene Induction/HuH7): 0.04 µM; EC50 ([1]; read-out: EC50, SHP Gene induction/HuH7): 0.05 µM; CYP7A1 expression (CPM) Relative to Vehicle (mouse model of NASH; NASH mice liver, 30 mg/kg): 0.02; CYP8B1 expression (CPM) Relative to Vehicle (mouse model of NASH; NASH mice liver, 30 mg/kg): 0.007; liver triglycerides (mouse model of NASH; NASH mice, 100 mg/kg): statistically significant reduced triglyceride levels; serum triglyceride concentration (mouse model of NASH; NASH mice, 100 mg/kg): statically significant reduction; serum ALT level (mouse model of NASH; NASH mice, 10, 30, 100 mg/kg): reduced; serum AST level (mouse model of NASH; NASH mice, 10, 30, 100 mg/kg): reduced; ballooning (score) (mouse model of NASH; [5]): significantly reduced; inflammation (score) (mouse model of NASH; [5]): significantly reduced; steatosis (score) (mouse model of NASH; [5]): significantly reduced; serum total cholesterol level (mouse model of NASH; NASH mice, 10, 30, and 100 mg/kg): statistically significant reduction; NAFLD Activity Score (NAS) (mouse model of NASH; NASH mice, 10, 30, or 100 mg/kg daily oral, 28 days, vs untreated NASH mice): significantly lower NAS score; collagen, type 1, alpha 1 expression in the liver (mouse model of NASH; NASH mice, 10, 30, or 100 mg/kg, vs control NASH mice): decreased; Liver fibrosis (Sirius Red-positive area) (mouse model of NASH; NASH mice, 10, 30 or 100 mg/kg, vs untreated NASH control): statistically significant reduced fibrosis; Pruritus ([2]; Compound 1 25 mg oral daily for 7 days): No; Pruritus ([2]; Compound 1 75 mg oral daily for 7 days): No; Pruritus ([2]; Compound 1 150 mg oral daily for 7 days): No; AUC ([2]; 25 mg): 645 ng·h/mL; AUC ([2]; 75 mg): 1480 ng·h/mL; AUC ([2]; 150 mg): 2160 ng·h/mL; Pruritus ([2]; subjects taking the highest doses): no pruritus was observed; induction of FXR-specific genes, liver versus ileum (RT-qPCR) [3]: preferentially induces FXR-specific genes in the liver; half-life ([4]; read-out: IV Terminal t1/2 (converted)): 5.67 h; Vd ([4]; read-out: Vdss): 1.92 L/kg

Q: For `COC1CCN(c2ncc(OC/C(=C/F)CN)cn2)CC1` [Compound 2], which “inhibition of plasma SSAO activity” value (plasma SSAO; 4 hours post-dose, all dose cohorts (1, 3, 6, 10 mg single dose)) is on record?
A: Its value is “near complete inhibition”.

Q: And the “duration of continued suppression of plasma SSAO activity” value (plasma SSAO; after a single dose)?
A: Its value is “up to 1 week”.

Q: And the plasma methylamine (plasma SSAO; single dose 1, 3, 6, 10 mg)?
A: Its plasma methylamine is “Dose-dependent increases”.
